From PMC2997942 (Molecular pharmaceutics, 2010)
Read-outs that look alike come from different tables or passages of the source.

Legend:
[1] = clinical; ref Supplemental Table S6 references 1-19; cited from earlier work
OCTN2 [2] = target: T1, OCTN2 (Homo sapiens, UniProt O76082); settings: read-out: Ki or IC50; Caki-1 (human proximal tubule cell line); cited from earlier work
T1 sequence (O76082 1-557): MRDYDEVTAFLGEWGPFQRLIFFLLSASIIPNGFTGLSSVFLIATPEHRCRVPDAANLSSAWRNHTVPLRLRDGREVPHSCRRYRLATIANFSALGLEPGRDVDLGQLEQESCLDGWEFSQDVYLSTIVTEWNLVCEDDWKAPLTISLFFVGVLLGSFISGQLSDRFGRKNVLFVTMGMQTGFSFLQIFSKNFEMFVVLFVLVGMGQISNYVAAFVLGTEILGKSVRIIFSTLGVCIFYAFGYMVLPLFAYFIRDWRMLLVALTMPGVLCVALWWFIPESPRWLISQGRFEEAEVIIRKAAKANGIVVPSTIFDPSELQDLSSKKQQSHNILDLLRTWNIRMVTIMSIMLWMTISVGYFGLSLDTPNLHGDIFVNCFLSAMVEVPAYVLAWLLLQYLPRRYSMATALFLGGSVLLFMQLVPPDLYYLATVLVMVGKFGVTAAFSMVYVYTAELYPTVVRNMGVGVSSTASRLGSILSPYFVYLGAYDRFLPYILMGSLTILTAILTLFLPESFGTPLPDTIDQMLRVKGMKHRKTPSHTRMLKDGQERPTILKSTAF

[3] = in vivo; cited from earlier work
OCTN2 [4] = target: T1, OCTN2; assay: Inhibition of L-carnitine uptake in stably transfected hOCTN2-MDCK cells; type: cell-based; settings: Observed Ki (±SEM), test set, 10 min, competitive inhibition model
OCTN2 [5] = target: T1, OCTN2; settings: hOCTN2-Transfected MDCKII Cells, cited from earlier work; for Ki: read-out: Ki or IC50
human OCTN2 = settings: read-out: Ki or IC50; Hela with human OCTN2; cited from earlier work
OCTN2 [6] = settings: Mouse enterocyte; cited from earlier work
OCTN2 [7] = target: T1, OCTN2; settings: read-out: Ki or IC50; L6 cells overexpressing hOCTN2; cited from earlier work
OCTN2 [8] = target: T1, OCTN2; settings: read-out: Ki or IC50; BeWo (human placental cell line); cited from earlier work
rat OCTN2 [9] = settings: read-out: Ki or IC50; HEK stable cell line with rat OCTN2; cited from earlier work
rat OCTN2 [10] = settings: L6 stable cell line with rat OCTN2; cited from earlier work
[11] = tested on: Mouse myoblastic C2C12 cells; settings: read-out: Ki or IC50; cited from earlier work

O=C(O)COCCN1CCN(C(c2ccccc2)c2ccc(Cl)cc2)CC1 (stereo not shown) [Cetirizine]
Documented to cause rhabdomyolysis and/or carnitine deficiency in the literature [1]: No

Ciclotropium
Ki (OCTN2 [2]): 0.03 mM | Documented to cause rhabdomyolysis and/or carnitine deficiency in the literature [1]: No | Cmax [3]: 20.6 nM

CC[C@H]1OC(=O)[C@H](C)[C@@H](O[C@H]2C[C@@](C)(OC)[C@@H](O)[C@H](C)O2)[C@H](C)[C@@H](O[C@@H]2O[C@H](C)C[C@H](N(C)C)[C@H]2O)[C@](C)(O)C[C@@H](C)/C(=N\OCOCCOC)[C@H](C)[C@@H](O)[C@]1(C)O [Roxithromycin]
Ki (OCTN2 [4]): 333 ± 25 µM | Documented to cause rhabdomyolysis and/or carnitine deficiency in the literature [1]: Yes with statin[10]

CC12CC3CC(C)(C1)CC(N)(C3)C2 [Memantine]
Ki or IC50 (OCTN2 [5]): Not inhibitor | Documented to cause rhabdomyolysis and/or carnitine deficiency in the literature [1]: No

CCCC(CCC)C(=O)O [Valproic acid]
Documented to cause rhabdomyolysis and/or carnitine deficiency in the literature [1]: Yes[1]

CN(C)C(=N)N=C(N)N [Metformin]
Ki (OCTN2 [2]): 4.96 mM | Documented to cause rhabdomyolysis and/or carnitine deficiency in the literature [1]: Yes[14]

COc1cc(N)c(Cl)cc1C(=O)NC1CCN(CCCOc2ccc(F)cc2)CC1OC (stereo not shown) [Cisapride]
Ki (OCTN2 [4]): 66.7 ± 9.8 µM | Documented to cause rhabdomyolysis and/or carnitine deficiency in the literature [1]: Yes[13]

O=C(Cc1cccs1)N[C@@H]1C(=O)N2C(C(=O)[O-])=C(C[n+]3ccccc3)CS[C@H]12 [Cephaloridine]
Ki (human OCTN2): 0.23 mM

CC(=O)S[C@@H]1CC2=CC(=O)CC[C@]2(C)[C@H]2CC[C@@]3(C)[C@@H](CC[C@@]34CCC(=O)O4)[C@H]12 [Spironolactone]
Ki (OCTN2 [5]): 26 µM | Documented to cause rhabdomyolysis and/or carnitine deficiency in the literature [1]: No

CCN(CC)CC(=O)Nc1c(C)cccc1C [Lidocaine]
Ki or IC50 (OCTN2 [6]): Not inhibitor | Documented to cause rhabdomyolysis and/or carnitine deficiency in the literature [1]: No

COCCc1ccc(OCC(O)CNC(C)C)cc1 (stereo not shown) [Metoprolol]
Ki or IC50 (OCTN2 [5]): Not inhibitor

CO/N=C(\C(=O)N[C@@H]1C(=O)N2C(C(=O)O)=C(COC(N)=O)CS[C@H]12)c1ccco1 [Cefuroxime]
Ki (OCTN2 [7]): 0.525 mM | Documented to cause rhabdomyolysis and/or carnitine deficiency in the literature [1]: Yes[9]

Cc1c(F)c(N2CCNC(C)C2)cc2c1c(=O)c(C(=O)O)cn2C1CC1 (stereo not shown) [Grepafloxacin]
Ki (OCTN2 [8]): 300 µM

Nc1c2c(nc3ccccc13)CCCC2 [Tacrine]
Ki (rat OCTN2 [9]): 500 µM | Cmax [3]: 134 nM

Cc1nnc(SCC2=C(C(=O)O)N3C(=O)[C@@H](NC(=O)Cn4cnnn4)[C@H]3SC2)s1 [Cefazolin]
Ki (OCTN2 [7]): 6.74 mM

OC1(c2ccc(Cl)c(C(F)(F)F)c2)CCN(CCCC(c2ccc(F)cc2)c2ccc(F)cc2)CC1 [Penfluridol]
Ki (OCTN2 [4]): 26.5 ± 4.1 µM | Documented to cause rhabdomyolysis and/or carnitine deficiency in the literature [1]: No

CCCC[N+]1(C)C2CC(OC(=O)C(CO)c3ccccc3)CC1C1OC12 (single isomer, unassigned; (-)) [(−)-N- butylscopolamine]
Ki (OCTN2 [2]): 1.01 mM

N.N.[Cl][Pt][Cl] [Cisplatin]
Ki or IC50 (rat OCTN2 [10]): Not inhibitor | Documented to cause rhabdomyolysis and/or carnitine deficiency in the literature [1]: Yes[19] | Cmax [3]: 8130 nM

CCCN(CCC)S(=O)(=O)c1ccc(C(=O)O)cc1 [Probenecid]
Ki or IC50 (OCTN2 [6]): Not inhibitor | Documented to cause rhabdomyolysis and/or carnitine deficiency in the literature [1]: No

CCCC(=O)Nc1ccc(OCC(O)CNC(C)C)c(C(C)=O)c1 (stereo not shown) [Acebutolol]
Ki or IC50 (OCTN2 [5]): Not inhibitor | Documented to cause rhabdomyolysis and/or carnitine deficiency in the literature [1]: No

CO/N=C(\C(=O)N[C@@H]1C(=O)N2C(C(=O)[O-])=C(C[n+]3ccc(N)n3CCO)CS[C@H]12)c1csc(N)n1 [Cefoselis]
Ki (human OCTN2): 6.4 mM | Documented to cause rhabdomyolysis and/or carnitine deficiency in the literature [1]: Yes[3]

CC(C)c1nc(CN(C)C(=O)N[C@H](C(=O)N[C@@H](Cc2ccccc2)C[C@H](O)[C@H](Cc2ccccc2)NC(=O)OCc2cncs2)C(C)C)cs1 [Ritonavir]
Documented to cause rhabdomyolysis and/or carnitine deficiency in the literature [1]: Yes with statin[5]

CNC(=C[N+](=O)[O-])NCCSCc1csc(CN(C)C)n1 [Nizatidine]
Ki (OCTN2 [4]): 183 ± 17 µM | Documented to cause rhabdomyolysis and/or carnitine deficiency in the literature [1]: No

O=C1[O][Pt]2([NH][C@@H]3CCCC[C@H]3[NH]2)[O]C1=O [Oxaliplatin]
Ki or IC50 (rat OCTN2 [10]): Not inhibitor | Documented to cause rhabdomyolysis and/or carnitine deficiency in the literature [1]: No

NCC1(CC(=O)O)CCCCC1 [Gabapentin]
Documented to cause rhabdomyolysis and/or carnitine deficiency in the literature [1]: No

C[C@H](CS)C(=O)N1CCC[C@H]1C(=O)O [Captopril]
Ki or IC50 (OCTN2 [5]): Not inhibitor

Cc1cn([C@H]2C[C@H](N=[N+]=[N-])[C@@H](CO)O2)c(=O)[nH]c1=O [Zidovudine]
Ki [11]: 6 µM

C[C@H]1O[C@@H](O[C@H]2[C@@H](O)C[C@H](O[C@H]3[C@@H](O)C[C@H](O[C@H]4CC[C@@]5(C)[C@H](CC[C@@H]6[C@@H]5C[C@@H](O)[C@]5(C)[C@@H](C7=CC(=O)OC7)CC[C@]65O)C4)O[C@@H]3C)O[C@@H]2C)C[C@H](O)[C@@H]1O [Digoxin]
Ki or IC50 (OCTN2 [5]): Not inhibitor

CC[C@]1(O)C[C@H]2CN(CCc3c([nH]c4ccccc34)[C@@](C(=O)OC)(c3cc4c(cc3OC)N(C=O)[C@H]3[C@@](O)(C(=O)OC)[C@H](OC(C)=O)[C@]5(CC)C=CCN6CC[C@]43[C@@H]65)C2)C1 [Vincristine]
Documented to cause rhabdomyolysis and/or carnitine deficiency in the literature [1]: Yes[8]

COc1cccc2c1C(=O)c1c(O)c3c(c(O)c1C2=O)C[C@@](O)(C(C)=O)C[C@@H]3O[C@H]1C[C@H](N)[C@H](O)[C@H](C)O1 [Daunorubicin]
Ki (OCTN2 [4]): 502 ± 41 µM | Documented to cause rhabdomyolysis and/or carnitine deficiency in the literature [1]: No

CCc1c2c(nc3ccc(OC(=O)N4CCC(N5CCCCC5)CC4)cc13)-c1cc3c(c(=O)n1C2)COC(=O)[C@]3(O)CC [Irinotecan]
Ki (OCTN2 [4]): 219 ± 18 µM

C[N+](C)(C)NCCC(=O)[O-] [Mildronate]
Ki (OCTN2 [5]): 26 µM | Documented to cause rhabdomyolysis and/or carnitine deficiency in the literature [1]: No

NC(N)=Nc1nc(CSCCC(N)=NS(N)(=O)=O)cs1 [Famotidine]
Ki (OCTN2 [2]): 1.92 mM | Documented to cause rhabdomyolysis and/or carnitine deficiency in the literature [1]: Yes[18]

CN/C(=N/CCSCc1nc[nH]c1C)NC#N [Cimetidine]
Documented to cause rhabdomyolysis and/or carnitine deficiency in the literature [1]: No

NS(=O)(=O)c1cc(C(=O)O)c(NCc2ccco2)cc1Cl [Furosemide]
Documented to cause rhabdomyolysis and/or carnitine deficiency in the literature [1]: No

Cc1nc2n(c(=O)c1CCN1CCC(c3noc4cc(F)ccc34)CC1)CCCC2 [Risperidone]
Documented to cause rhabdomyolysis and/or carnitine deficiency in the literature [1]: Yes with statin[17]

CCC1=C[C@@H]2CN(C1)Cc1c([nH]c3ccccc13)[C@@](C(=O)OC)(c1cc3c(cc1OC)N(C)[C@H]1[C@@](O)(C(=O)OC)[C@H](OC(C)=O)[C@]4(CC)C=CCN5CC[C@]31[C@@H]54)C2 [Vinorelbine]
Ki (OCTN2 [4]): 26.8 ± 1.5 µM | Documented to cause rhabdomyolysis and/or carnitine deficiency in the literature [1]: No

O=C1[C@H](CC[C@H](O)c2ccc(F)cc2)[C@@H](c2ccc(O)cc2)N1c1ccc(F)cc1 [Ezetimibe]
Ki (OCTN2 [4]): 29.3 ± 5 µM | Documented to cause rhabdomyolysis and/or carnitine deficiency in the literature [1]: Yes with statin[15]

CO/N=C(\C(=O)N[C@@H]1C(=O)N2C(C(=O)[O-])=C(C[N+]3(C)CCCC3)CS[C@H]12)c1csc(N)n1 [Cefepime]
Ki (human OCTN2): 1.7 mM

COC(=O)[C@H]1[C@H]2C[C@@H]3c4[nH]c5cc(OC)ccc5c4CCN3C[C@H]2C[C@@H](OC(=O)c2cc(OC)c(OC)c(OC)c2)[C@@H]1OC [Reserpine]
Ki (OCTN2 [4]): 32.2 ± 4.8 µM | Documented to cause rhabdomyolysis and/or carnitine deficiency in the literature [1]: No
